Activity data for 14 compounds are collected here from ChEMBL document CHEMBL1268958, “Synthesis and antihyperlipidemic activity of novel coumarin bisindole derivatives” (2010).

Common to all, as to format: functional, Mesocricetus auratus
In assay [1] the test system is Syrian golden hamster. The assay can be described thus: Antihyperlipidemic activity against high fat diet fed gloden syrian hamster assessed as change in HDL to total cholesterol ratio at 25 mg/kg, po for 7 days.
The subject of assay [2] is Syrian golden hamster. Put plainly: Antihyperlipidemic activity against high fat diet fed gloden syrian hamster assessed as change in triglyceride level at 25 mg/kg, po for 7 days.
Assay [3] relates to Syrian golden hamster. The assay can be described thus: Antihyperlipidemic activity against high fat diet fed gloden syrian hamster assessed as change in total cholesterol level at 25 mg/kg, po for 7 days.
Assay [4] relates to Syrian golden hamster. The assay can be described thus: Antihyperlipidemic activity against high fat diet fed gloden syrian hamster assessed as change in HDL level at 25 mg/kg, po for 7 days.
The subject of assay [5] is Syrian golden hamster. Put plainly: Antihyperlipidemic activity against high fat diet fed gloden syrian hamster assessed as change in total cholesterol level at 10 mg/kg, po for 7 days.
Assay [6] concerns Syrian golden hamster. Put plainly: Antihyperlipidemic activity against high fat diet fed gloden syrian hamster assessed as change in HDL level at 10 mg/kg, po for 7 days.
Assay [7] concerns Syrian golden hamster. Put plainly: Antihyperlipidemic activity against high fat diet fed gloden syrian hamster assessed as change in HDL to total cholesterol ratio at 10 mg/kg, po for 7 days.
Assay [8] relates to Syrian golden hamster. Put plainly: Antihyperlipidemic activity against high fat diet fed gloden syrian hamster assessed as change in triglyceride level at 10 mg/kg, po for 7 days.

As to `CC[C@H](C)C(=O)O[C@H]1C[C@@H](C)C=C2C=C[C@H](C)[C@H](CC[C@@H]3C[C@@H](O)CC(=O)O3)[C@H]21` [LOVASTATIN], the Activity in assay [1] was 12%; in assay [2], -29%; in assay [3] it was -9%; in assay [4], 3%.

For the compound `COC(=O)c1cc2cc(C(c3c(C)[nH]c4ccccc34)c3c(C)[nH]c4ccccc34)c3ccccc3c2oc1=O`, the Activity in assay [5] was -17%; in assay [6] it was 1%; in assay [7] it was 24%; in assay [8], -33%.

As for `CCOC(=O)c1cc2cc(C(c3c[nH]c4ccccc34)c3c[nH]c4ccccc34)cc(C(C)CC)c2oc1=O` (stereo unspecified), the Activity was 28% in assay [5], 11% in assay [6], -14% in assay [7] and -10% in assay [8].

As for `CCOC(=O)c1cc2cc(C(c3c(C)[nH]c4ccccc34)c3c(C)[nH]c4ccccc34)cc(C(C)CC)c2oc1=O` (stereo unspecified), the Activity in assay [5] is given as -21%; in assay [6], -13%; in assay [7], 9%; in assay [8] it was -39%.

For `CCOC(=O)c1cc2cc(C(c3c(C)[nH]c4ccccc34)c3c(C)[nH]c4ccccc34)c3ccccc3c2oc1=O`, the Activity is listed as -7% in assay [5], 14% in assay [6], 24% in assay [7] and -35% in assay [8].

In the case of `COC(=O)c1cc2cc(C(c3c[nH]c4ccccc34)c3c[nH]c4ccccc34)c3ccccc3c2oc1=O`, the Activity in assay [5] is listed as -12%; in assay [6], 13%; in assay [7] it was 30%; in assay [8] it was -50%.

`CCOC(=O)c1cc2cc(C(c3cn(C)c4ccccc34)c3cn(C)c4ccccc34)c3ccccc3c2oc1=O`: the Activity is 3% in assay [5], 22% in assay [6], 18% in assay [7] and -33% in assay [8].

`COC(=O)c1cc2cc(C(c3c(C)n(C)c4ccccc34)c3c(C)n(C)c4ccccc34)c3ccccc3c2oc1=O`: the Activity is reported as -4% in assay [5], -3% in assay [6], 2% in assay [7] and -29% in assay [8].

`CCOC(=O)c1cc2cc(C(c3c(C)n(C)c4ccccc34)c3c(C)n(C)c4ccccc34)cc(C(C)CC)c2oc1=O` (stereo unspecified): the Activity is listed as -43% in assay [5], -20% in assay [6], 39% in assay [7] and -57% in assay [8].

`CC(C)c1c(C(=O)Nc2ccccc2)c(-c2ccccc2)c(-c2ccc(F)cc2)n1CC[C@@H](O)C[C@@H](O)CC(=O)O` [ATORVASTATIN]: the Activity in assay [5] was -14%; in assay [6], 15%; in assay [7], 35%; in assay [8] it was -63%.

On to `COC(=O)c1cc2cc(C(c3cn(C)c4ccccc34)c3cn(C)c4ccccc34)c3ccccc3c2oc1=O`, for which the Activity was 6% in assay [5], -17% in assay [6], 12% in assay [7] and -35% in assay [8].

In the case of `CCOC(=O)c1cc2cc(C(c3c(C)n(C)c4ccccc34)c3c(C)n(C)c4ccccc34)c3ccccc3c2oc1=O`, the Activity in assay [5] is reported as -38%; in assay [6] it was -31%; in assay [7] it was 11%; in assay [8] it was -45%.

`CCOC(=O)c1cc2cc(C(c3c[nH]c4ccccc34)c3c[nH]c4ccccc34)c3ccccc3c2oc1=O`: the Activity is given as -20% in assay [5], 14% in assay [6], 42% in assay [7] and -55% in assay [8].

On to `CCOC(=O)c1cc2cc(C(c3cn(C)c4ccccc34)c3cn(C)c4ccccc34)cc(C(C)CC)c2oc1=O` (stereo unspecified), for which the Activity is -36% in assay [5], -24% in assay [6], 18% in assay [7] and -43% in assay [8].
